From ChEMBL document CHEMBL4823289, “Conformational-Analysis-Guided Discovery of 2,3-Disubstituted Pyridine IDO1 Inhibitors” (ACS Med Chem Lett, 2021)

What was measured:
[1] = AUC (0 to 24 hrs) in nu/nu mouse xenograft model xenografted with human SK-OV-3 cells measured in tumor at 180 mg/kg, po QD; format: ADME, organism-based; design: time < 24 hr, route oral, dose 180 mg/kg
[2] = Metabolic stability in human liver microsomes assessed as parent compound remaining at 0.5 uM after 10 mins incubation by LC-MS/MS analysis relative to control; format: ADME, Microsome; conditions: read-out: Activity
[3] = AUC in dog at 5 mg/kg, po; format: ADME, organism-based, Canis lupus familiaris; design: dose 5 mg/kg; conditions: in vivo
[4] = target: Indoleamine 2,3-dioxygenase 1 (Mus musculus, UniProt P28776); assay: Inhibition of IDO1 in IFNgamma-stimulated mouse M109 cells preincubated for 2 hrs followed by recombinant murine IFNgamma stimulation and measured after 18 hrs by fluorescence based microplate reader assay; format: cell-based
[5] = Drug metabolism in human hepatocytes assessed as demethylated metabolite formation; format: ADME, cell-based, Hepatocyte
[6] = Apparent permeability of the compound at pH 7.4 by PAMPA; format: ADME
[7] = Half life in rat at 0.5 mg/kg, iv; format: ADME, organism-based; conditions: in vivo
[8] = AUC in rat at 10 mg/kg, po; format: ADME, organism-based; design: dose 10 mg/kg; conditions: in vivo
[9] = system: UDP-glucuronosyltransferases (UGT); assay: Metabolic stability assessed as mouse UGT-mediated metabolism by measuring half life; format: ADME
Cytochrome P450 (CYP) [10] = assay: Metabolic stability assessed as dog CYP-mediated metabolism by measuring half life; format: ADME, Canis lupus familiaris
[11] = Oral bioavailability in mouse at 10 mg/kg; format: ADME, organism-based; conditions: in vivo
[12] = target: Indoleamine 2,3-dioxygenase 1 (Homo sapiens, UniProt P14902); assay: Inhibition of IDO1 in IFNgamma-stimulated human HeLa cells preincubated for 2 hrs followed by recombinant human IFNgamma stimulation and measured after 18 hrs by fluorescence based microplate reader assay
Cytochrome P450 2C9 = Cytochrome P450 2C9 (Homo sapiens, UniProt P11712); assay: Inhibition of human CYP2C9
Cytochrome P450 (CYP) [13] = assay: Metabolic stability assessed as cynomolgus monkey CYP-mediated metabolism by measuring half life; format: ADME, Macaca fascicularis
[14] = Volume of steady state distribution in cynomolgus monkey at 1 mg/kg, iv; format: ADME, organism-based, Macaca fascicularis; conditions: in vivo, read-out: Vdss
[15] = Clearance in dog at 1 mg/kg, iv; format: ADME, organism-based, Canis lupus familiaris; conditions: in vivo
[16] = Volume of steady state distribution in rat at 0.5 mg/kg, iv; format: ADME, organism-based; conditions: in vivo, read-out: Vdss
[17] = AUC (0 to 24 hrs) in human SK-OV-3 cells xenografted in nu/nu mouse xenograft model measured in tumor at 20 mg/kg, po QD; format: ADME, organism-based; design: time < 24 hr, route oral, dose 20 mg/kg
[18] = Apparent permeability across apical to basolateral side in human Caco-2 cells; format: ADME, cell-based
[19] = Half life in dog at 1 mg/kg, iv; format: ADME, organism-based, Canis lupus familiaris; conditions: in vivo
[20] = AUC in rat at 0.5 mg/kg, iv; format: ADME, organism-based; design: dose 0.5 mg/kg; conditions: in vivo
[21] = system: UDP-glucuronosyltransferases (UGT); assay: Metabolic stability assessed as dog UGT-mediated metabolism by measuring half life; format: ADME, Canis lupus familiaris
[22] = Clearance in rat at 0.5 mg/kg, iv; format: ADME, organism-based; conditions: in vivo
[23] = Volume of steady state distribution in dog at 1 mg/kg, iv; format: ADME, organism-based, Canis lupus familiaris; conditions: in vivo, read-out: Vdss
Cytochrome P450 (CYP) [24] = assay: Metabolic stability assessed as rat CYP-mediated metabolism by measuring half life; format: ADME
[25] = Clearance in cynomolgus monkey at 1 mg/kg, iv; format: ADME, organism-based, Macaca fascicularis; conditions: in vivo
[26] = Drug metabolism in cynomolgus monkey hepatocytes assessed as demethylated metabolite formation; format: ADME, cell-based, Macaca fascicularis, Hepatocyte
[27] = target: UDP-glucuronosyltransferases (UGT) (Homo sapiens, UniProt O60656+O75310+O75795+P06133+P0DTE4+P0DTE5+P16662+P19224+P22309+P22310+P35503+P35504+P36537+P54855+Q6UWM9+Q9BY64+Q9HAW7+Q9HAW8+Q9HAW9); assay: Metabolic stability assessed as human UGT-mediated metabolism by measuring half life; format: ADME, protein assay

Chain of Indoleamine 2,3-dioxygenase 1 (Homo sapiens, UniProt P14902) (P14902 whole entry): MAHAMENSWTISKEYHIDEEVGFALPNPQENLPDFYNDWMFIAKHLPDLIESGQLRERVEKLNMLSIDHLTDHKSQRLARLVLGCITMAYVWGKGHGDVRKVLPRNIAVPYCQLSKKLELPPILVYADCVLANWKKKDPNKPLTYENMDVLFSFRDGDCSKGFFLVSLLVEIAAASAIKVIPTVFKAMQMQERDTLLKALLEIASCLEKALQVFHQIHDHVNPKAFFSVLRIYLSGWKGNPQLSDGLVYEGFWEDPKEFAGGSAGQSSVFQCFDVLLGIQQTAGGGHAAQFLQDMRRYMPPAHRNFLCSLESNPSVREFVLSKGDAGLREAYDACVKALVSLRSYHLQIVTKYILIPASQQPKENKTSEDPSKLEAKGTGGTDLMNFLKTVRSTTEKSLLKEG
Chain of Indoleamine 2,3-dioxygenase 1 (Mus musculus, UniProt P28776) (P28776 whole entry): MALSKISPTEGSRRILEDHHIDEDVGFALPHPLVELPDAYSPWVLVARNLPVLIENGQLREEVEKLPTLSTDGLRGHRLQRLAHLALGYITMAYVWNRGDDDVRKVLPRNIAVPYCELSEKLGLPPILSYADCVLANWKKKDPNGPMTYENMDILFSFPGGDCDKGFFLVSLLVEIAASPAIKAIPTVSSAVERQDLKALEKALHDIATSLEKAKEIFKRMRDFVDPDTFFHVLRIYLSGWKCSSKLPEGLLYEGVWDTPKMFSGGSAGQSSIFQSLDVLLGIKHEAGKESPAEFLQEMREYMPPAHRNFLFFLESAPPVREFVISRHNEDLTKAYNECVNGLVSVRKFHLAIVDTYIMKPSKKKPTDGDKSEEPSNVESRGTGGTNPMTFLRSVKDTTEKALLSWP
Chain of Cytochrome P450 2C9 (P11712 whole entry): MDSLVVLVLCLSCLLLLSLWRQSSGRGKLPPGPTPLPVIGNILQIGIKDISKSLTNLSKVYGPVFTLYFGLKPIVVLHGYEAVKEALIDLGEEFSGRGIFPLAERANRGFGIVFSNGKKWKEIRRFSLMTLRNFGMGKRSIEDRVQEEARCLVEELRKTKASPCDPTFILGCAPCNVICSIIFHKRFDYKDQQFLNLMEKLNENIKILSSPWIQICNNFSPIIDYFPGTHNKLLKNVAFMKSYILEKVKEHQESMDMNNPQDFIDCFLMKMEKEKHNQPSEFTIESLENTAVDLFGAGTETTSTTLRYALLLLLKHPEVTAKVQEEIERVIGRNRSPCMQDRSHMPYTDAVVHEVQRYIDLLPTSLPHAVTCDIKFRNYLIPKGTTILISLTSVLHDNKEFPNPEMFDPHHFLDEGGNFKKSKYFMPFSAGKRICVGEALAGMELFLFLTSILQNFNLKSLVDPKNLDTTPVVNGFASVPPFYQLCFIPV

CC[C@@H](NC(=O)c1ccc(OC)nc1)[C@H]1CC[C@@H](c2ccnc(OC)c2C(F)F)CC1
AUC at 24 h [1]: 13 µM·h
remaining at 10 min, 0.5 µM [2]: 87%
AUC [3]: 3.2 µM·h
IC50 [4]: 14 nM
Drug metabolism [5]: Metabolite_Detected
Papp [6]: 107 ×10⁻⁶ cm/s
half-life [7]: 7.1 h
AUC [8]: 8.7 µM·h
half-life [9]: > 2 h
half-life (Cytochrome P450 (CYP) [10]): 7 min
bioavailability [11]: 33%
IC50 [12]: 2 nM
IC50 (Cytochrome P450 2C9): 1890 nM
half-life (Cytochrome P450 (CYP) [13]): 3 min
Vd [14]: 4.5 L/kg
clearance [15]: 18 mL/min/kg
Vd [16]: 4 L/kg
AUC at 24 h [17]: 7.9 µM·h
Papp A→B [18]: 12.2 ×10⁻⁶ cm/s
half-life [19]: 14 h
AUC [20]: 1.3 µM·h
half-life [21]: > 2 h
clearance [22]: 15 mL/min/kg
Vd [23]: 9 L/kg
half-life (Cytochrome P450 (CYP) [24]): 0.333 h
clearance [25]: 29 mL/min/kg
Drug metabolism [26]: Metabolite_Detected
half-life [27]: > 2 h
